Literature values as cited in patent publication US5766627A, “Multivescular liposomes with controlled release of encapsulated biologically active substances” (priority 1997, dated 1998).

What was measured:
[1] = free amikacin, background statement
[2] = tested on: strains of gram negative bacteria; settings: clinical, background statement
[3] = tested on: strains of gram positive bacteria; settings: clinical, background statement

## NCC[C@H](O)C(=O)N[C@@H]1C[C@H](N)[C@@H](O[C@H]2O[C@H](CN)[C@@H](O)[C@H](O)[C@H]2O)[C@H](O)[C@H]1O[C@H]1O[C@H](CO)[C@@H](O)[C@H](N)[C@H]1O [amikacin]
[1]
  serum half-life: two to three
[2]
  activity against gram negative bacteria: clinically significant activity
[3]
  activity against gram positive bacteria: clinically significant activity
